Laboratory results taken from patent US8088806B2 (Achillion Pharmaceuticals, Inc., priority 2005, dated 2012).

test system: HCV replicon; test: Replicon based assay of HCV replication inhibition (NPT ELISA); type: cell-based, Hepatitis C virus; settings: Hepatitis C virus, Huh-7, 72 h, Table I; Huh-7 HCV replicon-containing cells, three days; read-out: Activity
In short: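 Huh-7 cells carrying a bicistronic HCV replicon (neo, EMCV-IRES-driven NS3–NS5B) treated overnight after seeding with usually 6 concentrations, 10 to 0.03 micromolar, for three days at 37° C without G418. Replication read as NPT level by captured ELISA; matched-DMSO wells and interferon alpha as controls.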

First: c1cncc(-c2csc(Nc3ccc4c(c3)Cc3ccccc3-4)n2)c1 [compound 104, N-(9H-fluoren-7-yl)-4-(pyridin-3-yl)thiazol-2-amine]
Second: CC(C)N(c1ccccc1)c1ccc(Nc2nc(-c3cccnc3)cs2)cc1 [compound 106, N1-isopropyl-N1-phenyl-N4-(4-(pyridin-3-yl)thiazol-2-yl)benzene-1,4-diamine]
The EC50 of the first is lower: 1 to 10 µM for the first, > 10 µM for the second.

`Cc1nccc(-c2cccc(Nc3nc(-c4cccnc4)cs3)c2)n1` [compound 105, N-(3-(2-methylpyrimidin-4-yl)phenyl)-4-(pyridin-3-yl)thiazol-2-amine] and `CCCc1ccc(Nc2nc(-c3cccnc3)cs2)cc1` [compound 110, N-(4-propylphenyl)-4-(pyridin-3-yl)thiazol-2-amine] cannot be ordered by EC50: > 10 µM for the first, > 10 µM for the second.

`CCCCOC(=O)c1ccc(Nc2nc(-c3cccnc3)cs2)cc1` [compound 107, butyl 4-(4-(pyridin-3-yl)thiazol-2-ylamino)benzoate] and `CCOC(=O)Cc1ccc(Nc2nc(-c3cccnc3)cs2)cc1` [compound 109, ethyl 2-(4-(4-(pyridin-3-yl)thiazol-2-ylamino)phenyl)acetate] cannot be ordered by EC50: > 10 µM for the first, > 10 µM for the second.

`CCOC(=O)C1CCN(Cc2cccc(Nc3nc(-c4cccnc4)cs3)c2)CC1` [compound 108, ethyl 1-(3-(4-(pyridin-3-yl)thiazol-2-ylamino)benzyl)piperidine-4-carboxylate] and `CCCCCOc1ccc(NC(=O)c2nc(-c3cccnc3)cs2)cc1` [compound 113, N-(4-(pentyloxy)phenyl)-4-(pyridin-3-yl)thiazole-2-carboxamide] cannot be ordered by EC50: > 10 µM for the first, > 10 µM for the second.

`CC(C)(C)c1ccc(NC(=O)c2nc(-c3cccnc3)cs2)cc1` [compound 111, N-(4-tert-butylphenyl)-4-(pyridin-3-yl)thiazole-2-carboxamide] and `O=C(Nc1ccc(Cl)c(Cl)c1)c1nc(-c2cccnc2)cs1` [compound 123, N-(3,4-dichlorophenyl)-4-(pyridin-3-yl)thiazole-2-carboxamide] cannot be ordered by EC50: > 10 µM for the first, > 10 µM for the second.

`CCCCCOc1ccc(NC(=O)c2nc(-c3cccnc3)cs2)cc1C(F)(F)F` [compound 112, N-(3-(trifluoromethyl)-4-(pentyloxy)phenyl)-4-(pyridin-3-yl)thiazole-2-carboxamide] and `CCCCCOc1ccc(NC(=O)c2csc(-c3cccnc3)n2)cc1C(F)(F)F` [compound 127, N-(3-(trifluoromethyl)-4-(pentyloxy)phenyl)-2-(pyridin-3-yl)thiazole-4-carboxamide] cannot be ordered by EC50: > 10 µM for the first, > 10 µM for the second.

`O=C(Nc1ccc(OCc2ccccc2)cc1)c1nc(-c2cccnc2)cs1` [compound 114] and `O=C(Nc1ccc(Oc2ccc(Cl)cc2)cc1)c1nc(-c2cccnc2)cs1` [compound 115, N-(4-(4-chlorophenoxy)phenyl)-4-(pyridin-3-yl)thiazole-2-carboxamide] cannot be ordered by EC50: > 10 µM for the first, > 10 µM for the second.

`CCCCCOc1ccc(N(C(C)=O)c2nc(-c3ccc(F)cc3)cs2)cc1C(F)(F)F` [compound 116, N-(3-(trifluoromethyl)-4-(pentyloxy)phenyl)-N-(4-(4-fluorophenyl)thiazol-2-yl)acetamide] and `CCCCCOc1ccc(Nc2nc(-c3ccc(OC)cc3)cs2)cc1C(F)(F)F` [compound 134, N-(3-(trifluoromethyl)-4-(pentyloxy)phenyl)-4-(4-methoxyphenyl)thiazol-2-amine] cannot be ordered by EC50: < 1 µM for the first, < 1 µM for the second.

First: CCCCCOc1ccc(Nc2ncc(-c3ccccc3)s2)cc1C(F)(F)F [compound 117, N-(3-(trifluoromethyl)-4-(pentyloxy)phenyl)-5-phenylthiazol-2-amine]
Second: CCCCCOc1ccc(Nc2nc(-c3ccc(Cl)cc3)c(-c3ccccc3)s2)cc1C(F)(F)F [compound 135, 4-(4-chlorophenyl)-N-(3-(trifluoromethyl)-4-(pentyloxy)phenyl)-5-phenylthiazol-2-amine]
The EC50 of the first is lower: < 1 µM for the first, > 10 µM for the second. The first is the more potent here.

Going from `Fc1ccc(Nc2nc(C(F)(F)F)c(-c3cccc(Cl)c3)s2)cc1` [compound 118, 5-(3-chlorophenyl)-4-(trifluoromethyl)-N-(4-fluorophenyl)thiazol-2-amine] to `CCCCCOc1ccc(Nc2nc(-c3ccc(F)c(F)c3)cs2)cc1C(F)(F)F` [compound 133, N-(3-(trifluoromethyl)-4-(pentyloxy)phenyl)-4-(3,4-difluorophenyl)thiazol-2-amine], the EC50 falls from > 10 µM to < 1 µM. The second is the more potent here.

Compared with `COc1ccc(Nc2nc(-c3ccccc3)c(-c3ccccc3)s2)cc1` [compound 119, N-(4-methoxyphenyl)-4,5-diphenylthiazol-2-amine], `COc1ccc(Nc2nc(-c3ccc(OCc4ccc(Br)cc4)cc3)cs2)cc1` [compound 122, 4-(4-(4-bromobenzyloxy)phenyl)-N-(4-methoxyphenyl)thiazol-2-amine] is higher in EC50: < 1 µM for the first, > 10 µM for the second.

Compared with `CCN(CC)S(=O)(=O)c1ccc(-c2csc(Nc3ccc(Br)cc3)n2)cc1` [compound 120, N-(4-bromophenyl)-4-diethylaminosulfonyl-phenyl-2-amine], `CCCCCOc1ccc(Nc2nc(-c3ccc(C#N)cc3)cs2)cc1C(F)(F)F` [compound 132, 4-(2-(3-(trifluoromethyl)-4-(pentyloxy)phenylamino)thiazol-4-yl)benzonitrile] is lower in EC50: > 10 µM for the first, < 1 µM for the second.

`CN(C(=O)c1nc(-c2cccnc2)cs1)c1ccc(Cl)c(Cl)c1` [compound 124, N-(3,4-dichlorophenyl)-N-methyl-4-(pyridin-3-yl)thiazole-2-carboxamide] and `CN(C(=O)c1csc(-c2cccnc2)n1)c1ccc(Cl)c(Cl)c1` [compound 126, N-(3,4-dichlorophenyl)-N-methyl-2-(pyridin-3-yl)thiazole-4-carboxamide] cannot be ordered by EC50: > 10 µM for the first, > 10 µM for the second.

First: O=C(Nc1ccc(Cl)c(Cl)c1)c1csc(-c2cccnc2)n1 [compound 125, N-(3,4-dichlorophenyl)-2-(pyridin-3-yl)thiazole-4-carboxamide]
Second: CCCCCOc1ccc(Nc2nc(C(=O)Nc3ccc(Cl)c(Cl)c3)cs2)cc1C(F)(F)F [compound 128, 2-(3-(trifluoromethyl)-4-(pentyloxy)phenylamino)-N-(3,4-dichlorophenyl)thiazole-4-carboxamide]
The EC50 of the first is higher: > 10 µM for the first, 1 to 10 µM for the second. The second is the more potent here.

Compared with `CCCCCOc1ccc(Nc2nc(C(=O)N(C)c3ccc(Cl)c(Cl)c3)cs2)cc1C(F)(F)F` [compound 129, 2-(3-(trifluoromethyl)-4-(pentyloxy)phenylamino)-N-(3,4-dichlorophenyl)-N-methylthiazole-4-carboxamide], `CCCCCOc1ccc(Nc2nc(-c3ccc(O)c(C(N)=O)c3)cs2)cc1C(F)(F)F` [compound 131, 5-(2-(3-(trifluoromethyl)-4-(pentyloxy)phenylamino)thiazol-4-yl)-2-hydroxybenzamide] is lower in EC50: > 10 µM for the first, < 1 µM for the second. The second is the more potent here.

`CCCCCOc1ccc(Nc2ncc(C(=O)OC)s2)cc1C(F)(F)F` [compound 130, methyl 2-(3-(trifluoromethyl)-4-(pentyloxy)phenylamino)thiazole-5-carboxylate] and `CCCCCOc1ccc(Nc2nc(C(C)=O)c(C)s2)cc1C(F)(F)F` [compound 136, 1-(2-(3-(trifluoromethyl)-4-(pentyloxy)phenylamino)-5-methylthiazol-4-yl)ethanone] cannot be ordered by EC50: > 10 µM for the first, > 10 µM for the second.

With `CCCCCOc1ccc(Nc2nc(-c3ccc(OCC(=O)O)cc3)c(C)s2)cc1C(F)(F)F` [compound 137, 2-(4-(2-(3-(trifluoromethyl)-4-(pentyloxy)phenylamino)-5-methylthiazol-4-yl)phenoxy)acetic acid] the EC50 was < 1 µM.
